Data reported in the supplement of paper PMC10307832.

Tests used:
Assay in all cases: relative viability (nuclei count vs DMSO), 5 days (fraction); higher = more cells survive
[1] = compound: COc1cc2nc(N3CCCN(C)CC3)nc(NC3CCN(Cc4ccccc4)CC3)c2cc1OC + CC(=O)c1c(C)c2cnc(Nc3ccc(N4CCNCC4)cn3)nc2n(C2CCCC2)c1=O [Palbociclib] (partner 0.5 µM)
In short: (§1)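 The day after seeding in 1536-well plates, lung cancer cell lines were treated by pin tool with a single drug, or with a fixed anchor-drug dose together with five library-drug doses (not always all listed) in √10 steps. After 5 days, a combined fix-and-stain solution (final 0.05% Triton X-100, 1% formaldehyde, 1 ug/ml Hoechst) was added. Nuclei counted on 4× images gave relative viability as treated counts over vehicle counts, reported as the median of duplicate plates.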

[2] = compound: COc1cc2nc(N3CCCN(C)CC3)nc(NC3CCN(Cc4ccccc4)CC3)c2cc1OC + CC1(C)CCC(c2ccc(Cl)cc2)=C(CN2CCN(c3ccc(C(=O)NS(=O)(=O)c4ccc(N[C@H](CCN5CCOCC5)CSc5ccccc5)c(S(=O)(=O)C(F)(F)F)c4)cc3)CC2)C1 [Navitoclax] (partner 0.5 µM)
In short: as §1

AZD6482 + Crizotinib = compound: Cc1cc([C@@H](C)Nc2ccccc2C(=O)O)c2nc(N3CCOCC3)cc(=O)n2c1 [AZD6482] + C[C@@H](Oc1cc(-c2cnn(C3CCNCC3)c2)cnc1N)c1c(Cl)ccc(F)c1Cl [Crizotinib] (partner 1 µM)
In short: as §1

AZD6482 + Linsitinib = compound: Cc1cc([C@@H](C)Nc2ccccc2C(=O)O)c2nc(N3CCOCC3)cc(=O)n2c1 [AZD6482] + C[C@]1(O)C[C@@H](c2nc(-c3ccc4ccc(-c5ccccc5)nc4c3)c3c(N)nccn32)C1 [Linsitinib] (partner 1 µM)
In short: as §1

Cell Line	relative viability ([1]; first compound 0.2 µM)	relative viability ([1]; first compound 0.6325 µM)	relative viability ([1]; first compound 2 µM)	relative viability ([1]; first compound 6.325 µM)	relative viability ([2]; first compound 0.2 µM)	relative viability ([2]; first compound 0.6325 µM)	relative viability ([2]; first compound 2 µM)	relative viability ([2]; first compound 6.325 µM)	relative viability (AZD6482 + Crizotinib; first compound 0.253 µM)	relative viability (AZD6482 + Crizotinib; first compound 0.8 µM)	relative viability (AZD6482 + Crizotinib; first compound 2.53 µM)	relative viability (AZD6482 + Crizotinib; first compound 8 µM)	relative viability (AZD6482 + Linsitinib; first compound 0.253 µM)	relative viability (AZD6482 + Linsitinib; first compound 0.8 µM)	relative viability (AZD6482 + Linsitinib; first compound 2.53 µM)	relative viability (AZD6482 + Linsitinib; first compound 8 µM)	relative viability (AZD6482 + Crizotinib; first compound 0.08 µM)	relative viability (AZD6482 + Linsitinib; first compound 0.08 µM)
NCI-H2347	0.46	0.433	0.385	0.422	0.764	0.771	0.873	0.693	0.609	0.581	0.425	0.498	0.943	0.949	0.571	0.84		
NCI-H2405	0.554	0.493	0.522	0.514	0.829	0.826	0.84	0.728	0.772	0.893	0.587	0.546		0.673	0.427	0.629	0.577	0.399
NCI-H3122	0.207	0.21	0.216	0.209	1.01	1.02	1.05	0.992	0.285	0.27	0.212	0.25	0.993	1.02	0.85	0.816	0.243	0.828
PC-3 [JPC-3]	0.542	0.591	0.578	0.468	0.89	0.815	0.775	0.741	0.988	0.952	0.862	1.02	1.04	1.02	0.787	0.841	0.926	0.911
PC-14	0.536	0.477	0.446	0.0369	1	0.93	1.14	0.882	0.896	0.904	0.783	0.876	0.966	1.02	0.675	0.736	0.826	0.93
RERF-LC-KJ	0.982	1.11	1.13	0.909	0.94	0.884	0.926	0.72	0.776	0.832	0.818	0.676	0.814	0.822	0.764	0.784	0.745	0.757
SK-LU-1	0.409	0.353	0.394	0.375	1.06	1	1.2	0.461	0.908	0.931	0.696	0.886	0.905	1.1	0.886	0.912		
SK-MES-1	0.319	0.304	0.295	0.106	1.14	1.24	1.36	0.999	0.838	0.86	0.419	0.439	1.01	0.608	0.394	0.393	0.854	0.873
SW 1573	0.365	0.417	0.377	0.196	0.941	0.868	1.08	0.755	0.696	0.733	0.548	0.466	0.678	0.493	0.443	0.572	0.781	0.66
